In article PMC7640639 (Journal of medicinal chemistry, 2019):
Like-named read-outs stand apart in the source and are kept apart here.

What was measured:
hCB2R [1] = molecular target: T1, hCB2R (Homo sapiens, UniProt P34972)
μ-opioid receptor (MOR) = μ-opioid receptor (MOR) (Homo sapiens, UniProt P35372)
hCB2R [2] = molecular target: T1, hCB2R; conditions: calcium mobilization
hCB1R = hCB1R (Homo sapiens, UniProt P21554); conditions: CHO-K1 cells, hCB1 and Gαq16
[3] = tested on: U266 myeloma cells (cAMP-regulated MIF and STAT-3 genes, hCB2R)
liver = conditions: mouse, in vivo, ip, 3 mg/kg
[4] = tested on: Aβ25–35-induced learning impairments in mice; conditions: mouse, in vivo, ip
HT-22 cells = assay: Neuroprotection against glutamate-induced oxidative stress in HT-22 cells; format: cell-based, mouse
[5] = molecular target: hAChE-induced Aβ40 aggregation (Homo sapiens, UniProt P22303); format: biochemical; conditions: [I] = 100 μM; Aβ40/hAChE 100:1
Aβ42 = Aβ42 (Homo sapiens, UniProt P05067); assay: Inhibition of Aβ42 self-aggregation, thioflavin T fluorescence assay; format: biochemical; conditions: 50 μM inhibitor, 50 μM Aβ42 (1:1)
[6] = tested on: murine microglial cell line N9
hAChE = hAChE (Homo sapiens, UniProt P22303); format: biochemical
[7] = HT-22 cells, 5 mM glutamate, 24 h, MTT

Aβ42, sequence (P05067 672-713): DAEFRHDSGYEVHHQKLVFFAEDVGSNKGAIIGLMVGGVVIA
T1 sequence (P34972 whole entry): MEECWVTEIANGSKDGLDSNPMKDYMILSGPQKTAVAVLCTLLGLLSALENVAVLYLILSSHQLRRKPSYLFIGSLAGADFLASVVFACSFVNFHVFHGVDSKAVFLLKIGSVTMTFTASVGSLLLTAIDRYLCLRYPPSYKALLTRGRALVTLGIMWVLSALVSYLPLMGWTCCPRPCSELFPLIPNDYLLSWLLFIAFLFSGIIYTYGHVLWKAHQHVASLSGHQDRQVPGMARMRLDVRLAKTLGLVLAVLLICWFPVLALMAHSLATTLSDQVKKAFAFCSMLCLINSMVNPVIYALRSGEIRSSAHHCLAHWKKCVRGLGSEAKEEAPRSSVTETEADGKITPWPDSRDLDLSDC
hAChE-induced Aβ40 aggregation, sequence (P22303 32-614): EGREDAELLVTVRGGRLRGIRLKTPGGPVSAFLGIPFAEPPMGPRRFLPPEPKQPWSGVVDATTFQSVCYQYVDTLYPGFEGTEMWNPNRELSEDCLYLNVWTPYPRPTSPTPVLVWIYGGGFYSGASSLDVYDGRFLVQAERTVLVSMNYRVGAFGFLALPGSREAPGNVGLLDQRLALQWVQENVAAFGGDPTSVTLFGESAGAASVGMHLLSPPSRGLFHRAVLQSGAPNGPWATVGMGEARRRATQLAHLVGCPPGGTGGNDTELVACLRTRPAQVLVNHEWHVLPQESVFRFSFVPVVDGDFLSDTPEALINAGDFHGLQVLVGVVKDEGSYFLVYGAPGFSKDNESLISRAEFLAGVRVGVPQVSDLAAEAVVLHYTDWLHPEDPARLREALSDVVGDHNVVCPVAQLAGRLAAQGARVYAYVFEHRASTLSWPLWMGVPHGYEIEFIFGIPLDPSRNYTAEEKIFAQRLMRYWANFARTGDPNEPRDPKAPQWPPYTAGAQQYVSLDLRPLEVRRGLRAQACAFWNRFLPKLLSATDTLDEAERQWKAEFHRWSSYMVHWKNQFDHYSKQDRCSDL
hCB1R, sequence (P21554 whole entry): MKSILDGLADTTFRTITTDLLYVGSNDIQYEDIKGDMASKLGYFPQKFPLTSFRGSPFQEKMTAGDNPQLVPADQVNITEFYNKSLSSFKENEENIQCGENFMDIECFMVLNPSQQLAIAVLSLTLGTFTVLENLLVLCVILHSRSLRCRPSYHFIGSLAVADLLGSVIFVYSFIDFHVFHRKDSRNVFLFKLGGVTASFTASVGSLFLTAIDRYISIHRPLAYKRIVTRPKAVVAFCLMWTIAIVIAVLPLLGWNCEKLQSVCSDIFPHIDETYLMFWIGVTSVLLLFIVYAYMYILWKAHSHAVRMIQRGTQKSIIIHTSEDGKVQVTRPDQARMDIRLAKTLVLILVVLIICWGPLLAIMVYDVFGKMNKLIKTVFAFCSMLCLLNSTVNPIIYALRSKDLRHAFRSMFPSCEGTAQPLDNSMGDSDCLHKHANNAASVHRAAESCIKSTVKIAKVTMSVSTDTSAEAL
μ-opioid receptor (MOR), sequence (P35372 whole entry): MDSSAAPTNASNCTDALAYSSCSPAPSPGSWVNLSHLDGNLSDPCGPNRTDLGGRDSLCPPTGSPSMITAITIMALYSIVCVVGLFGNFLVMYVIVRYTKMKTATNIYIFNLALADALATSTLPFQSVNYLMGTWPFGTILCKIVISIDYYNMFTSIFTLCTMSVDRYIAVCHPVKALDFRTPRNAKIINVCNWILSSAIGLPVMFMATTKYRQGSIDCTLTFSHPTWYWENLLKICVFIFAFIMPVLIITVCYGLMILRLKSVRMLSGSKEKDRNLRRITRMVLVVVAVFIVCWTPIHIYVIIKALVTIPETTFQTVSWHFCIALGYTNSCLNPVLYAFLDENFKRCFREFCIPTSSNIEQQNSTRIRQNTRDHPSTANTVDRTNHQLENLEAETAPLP
hAChE, sequence (P22303 32-614): as the sequence (P22303 32-614) above

Cc1c(C(=O)NN2CCCCC2)nn(-c2ccc(Cl)cc2Cl)c1-c1ccc(Cl)cc1 [Rimonabant]
[3H]CP 55,940 displ. @10 μM hCB2R (hCB2R [1]): 4%

CCOc1ccc(Cc2nc3cc(C(=O)NCCCCCCNc4c5c(nc6ccccc46)CCCC5)ccc3n2CCC(C)C)cc1 [4e, 2-(4-Ethoxybenzyl)-1-isopentyl-N-(6-((1,2,3,4-tetrahydroacridin-9-yl)amino)hexyl)-1H-benzo[d]imidazole-5-carboxamide]
affinity at the μ-opioid receptor (in words) (μ-opioid receptor (MOR)): significant affinity

CCOc1ccc(Cc2nc3cc(C(=O)NCCCCNc4c5c(nc6ccccc46)CCCC5)ccc3n2CCC(C)C)cc1 [4c, 2-(4-Ethoxybenzyl)-1-isopentyl-N-(4-((1,2,3,4-tetrahydroacridin-9-yl)amino)butyl)-1H-benzo[d]imidazole-5-carboxamide]
behaviour at hCB2R (in words) (hCB2R [2]): partial agonists | activity at hCB1R (in words) (hCB1R): devoid of activity | MIF and STAT-3 gene expression compared to vehicle [3]: decreased expression of both genes

CCOc1ccc(Cc2nc3cc(C(=O)NCCSSCCNc4c5c(nc6ccccc46)CCCC5)ccc3n2CCC(C)C)cc1 [compound 8, 2-(4-Ethoxybenzyl)-1-isopentyl-N-(2-((2-((1,2,3,4-tetrahydroacri-din-9-yl)amino)ethyl)disulfaneyl)ethyl)-1H-benzo[d]imidazole-5-carboxamide]
necrosis positive/specimen (liver): 8/11 | necrosis reported area % (liver): 5–50% | most effective dose, complete prevention of Aβ25–35 impairments in both tests [4]: 0.3 mg/kg | neuroprotection at 5 μM (in words) (HT-22 cells; HT-22 cells, 5 mM glutamate, 5 μM compound): neuroprotection comparable to the positive control quercetin at 25 μM | concentration showing neuroprotection (HT-22 cells; [7]): ≥ 1 µM | inhibition of hAChE-induced Aβ40 aggregation (in words) [5]: not able to significantly inhibit | inhibition of Aβ42 self-aggregation (in words) (Aβ42): strongly inhibited

CCOc1ccc(Cc2nc3cc(C(=O)NCCNc4c5c(nc6ccccc46)CCCC5)ccc3n2CCC(C)C)cc1 [4a, 2-(4-Ethoxybenzyl)-1-isopentyl-N-(2-((1,2,3,4-tetrahydroacridin-9-yl)amino)ethyl)-1H-benzo[d]imidazole-5-carboxamide]
necrosis positive/specimen (liver): 6/9 | necrosis reported area % (liver): 5–10% | IL1β release and iNOS expression (M1 markers) [6]: significantly decrease | NO release / nitrite accumulation [6]: reduced | TREM2 and TGFβ2 expression (M2 markers) [6]: not reduced | most effective dose, complete prevention of Aβ25–35 impairments in both tests [4]: 1 mg/kg | affinity at the μ-opioid receptor (in words) (μ-opioid receptor (MOR)): significant affinity

CCOc1ccc(Cc2nc3cc(C(=O)N(CC)CC)ccc3n2CCCCCNc2c3c(nc4ccccc24)CCCC3)cc1 [3d, 2-(4-Ethoxybenzyl)-N,N-diethyl-1-(5-((1,2,3,4-tetrahydroacridin-9-yl)amino)pentyl)-1H-benzo[d]imidazole-5-carboxamide]
necrosis positive/specimen (liver): 5/6 | necrosis reported area % (liver): 5–15% | neuroprotective behavior (in words) (HT-22 cells): none

CCOc1ccc(Cc2nc3cc(C(=O)NCCCNc4c5c(nc6ccccc46)CCCC5)ccc3n2CCC(C)C)cc1 [4b, 2-(4-Ethoxybenzyl)-1-isopentyl-N-(3-((1,2,3,4-tetrahydroacridin-9-yl)amino)propyl)-1H-benzo[d]imidazole-5-carboxamide]
inhibition of Aβ42 self-aggregation (in words) (Aβ42): quite weak

CCOc1ccc(Cc2nc3cc(C(=O)N(CC)CC)ccc3n2CCCCCCNc2c3c(nc4ccccc24)CCCC3)cc1 [3e, 2-(4-Ethoxybenzyl)-N,N-diethyl-1-(6-((1,2,3,4-tetrahydroacndin-9-yl)amino)hexyl)-1H-benzo[d]imidazole-5-carboxamide]
Ki′ (inhibition constant for the enzyme-substrate-inhibitor complex), in words (hAChE): submicromolar range | behaviour at hCB2R (in words) (hCB2R [2]): partial agonists | most effective dose, complete prevention of Aβ25–35 impairments in both tests [4]: 0.3 mg/kg | neuroprotective behavior (in words) (HT-22 cells; [7]): low neuroprotective behavior | inhibition of hAChE-induced Aβ40 aggregation (in words) [5]: significantly reduce the proaggregating action of hAChE | activity at hCB1R (in words) (hCB1R): devoid of activity | MIF and STAT-3 gene expression compared to vehicle [3]: decreased expression of both genes | inhibition of Aβ42 self-aggregation (in words) (Aβ42): strongly inhibited
